Data from PMC3823594, “Conformational Changes Underlying Pore Dilation in the Cytoplasmic Domain of Mammalian Inward Rectifier K^+ Channels” (PLoS ONE, 2013).
Substitutions are numbered along the chain they refer to. Each block holds one compound with its values, some of them ahead of it.

Tests used:
Kir3.2 WT = experiment: Inside-out patch clamp recording of channel activity; format: cell-based, mouse; conditions: Kir3.2 WT in HEK293T inside-out patches, −100 mV
Method: (§1) The Kir3.2d and m2R subcloned into pcDNA3 (Invitrogen) were transfected into HEK293T cells using the Lipofectamine Plus reagent (Invitrogen, Carlsbad, CA). Single-channel activity was recorded in a cell-attached configuration at a holding potential of -100 mV using a patch-clamp amplifier (Axopatch 200B; Axon Instruments). The current traces were low-pass filtered at 1 kHz and digitized at 10 kHz. The glass pipettes had resistances of 2.5–3.5 MΩ when filled with the pipette solution, which contained 135 mM KCl, 1 mM CaCl2, 1.6 mM MgCl2, 5 mM HEPES, and 5 μM ACh; the bath solution was a Tyrode solution. A 50% crossing criterion for the current amplitude was used to judge the single-channel activity.
(§2) Inside-out patch clamp experiments were performed by the excision of patch membranes in the cell-attached configuration. The bath solution consisted of 135 mM KCl, 5 mM EGTA, 2 mM MgCl2 and 5 mM HEPES. The holding potential was -100 mV. We perfused ATP at the intracellular side to produce PIP2 at the inner leaflet of the plasma membrane, GTP (3 μM) to produce Gβγ mildly and GTPγS (10 μM) to generate Gβγ maximally. The pH of all solutions was adjusted to 7.35 with KOH prior to the experiments. All experiments were conducted at ambient temperature (20–25°C).
Figure 5 Inside-out patch recordings of Kir3.2 WT and mutant channels. […]

Kir3.2 M313T = target: T1, Kir3.2 M313T (Mus musculus, UniProt P48542, I313T); experiment: as above; format: cell-based; conditions: Kir3.2 M313T in HEK293T inside-out patches, −100 mV
T1 sequence (P48542 19-425 I313T): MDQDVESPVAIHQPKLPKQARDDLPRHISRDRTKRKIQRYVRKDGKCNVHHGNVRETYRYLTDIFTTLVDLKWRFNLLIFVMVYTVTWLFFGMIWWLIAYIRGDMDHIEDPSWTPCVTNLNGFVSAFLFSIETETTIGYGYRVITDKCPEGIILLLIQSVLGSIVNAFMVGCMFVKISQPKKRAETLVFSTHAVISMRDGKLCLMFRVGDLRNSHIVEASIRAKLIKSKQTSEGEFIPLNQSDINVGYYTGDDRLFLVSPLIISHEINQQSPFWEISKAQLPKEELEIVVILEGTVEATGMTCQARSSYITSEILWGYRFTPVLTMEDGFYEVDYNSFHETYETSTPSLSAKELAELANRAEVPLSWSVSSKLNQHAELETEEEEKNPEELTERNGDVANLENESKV
T1 sequence (P06199 1-466 partner): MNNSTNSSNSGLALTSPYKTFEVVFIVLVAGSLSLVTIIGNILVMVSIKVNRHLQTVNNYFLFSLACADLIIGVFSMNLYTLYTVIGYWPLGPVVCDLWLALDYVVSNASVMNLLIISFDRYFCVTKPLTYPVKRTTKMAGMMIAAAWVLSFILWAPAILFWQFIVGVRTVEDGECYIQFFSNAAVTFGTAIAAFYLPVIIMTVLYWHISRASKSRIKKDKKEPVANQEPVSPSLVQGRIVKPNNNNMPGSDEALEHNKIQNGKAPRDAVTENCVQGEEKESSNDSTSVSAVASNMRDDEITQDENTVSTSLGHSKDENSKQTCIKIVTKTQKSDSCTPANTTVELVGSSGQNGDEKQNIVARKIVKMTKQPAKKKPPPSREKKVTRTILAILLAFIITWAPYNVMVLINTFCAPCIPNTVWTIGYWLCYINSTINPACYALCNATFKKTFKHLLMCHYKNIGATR
Method: as §1, §2
(§3) Figure 5 Inside-out patch recordings of Kir3.2 WT and mutant channels. Inside-out membrane patches were obtained from HEK293T cells expressing either Kir3.2 WT (A), M313G (B) or M313T mutant (C) channels. Experiments were conducted in symmetric 135 mM K^+ solutions with a holding potential of -100 mV. Perfusion of ATP was for the generation of PIP2 at the inner leaflet of the excised patch membranes. The protocol used for perfusion of substances to the intracellular side of the patch membrane is indicated by bars above the current traces.

[1] = target: cytoplasmic domain (CPD) of the mouse Kir3.2 E236R mutant (mouse); experiment: not stated; purified CPD E236R in solution; the method for the oligomeric state is not told
[2] = target: cytoplasmic domain (CPD) of the mouse Kir3.2 E236R mutant (mouse); experiment: crystal structure; sitting drops; reservoir 15% (v/v) ethanol, 0.1 M HEPES-NaOH (pH 7.5), 0.2 M MgCl2; 4°C; space group P4212; 2.0 Å
Kir3.2 M313G = target: T2, Kir3.2 M313G (Mus musculus, UniProt P48542, I313G); experiment: Inside-out patch clamp recording of channel activity; format: cell-based; conditions: Kir3.2 M313G in HEK293T inside-out patches; ATP perfused at 2 mM; −100 mV
T2 sequence (P48542 19-425 I313G): T1 sequence (P48542 19-425 I313T) with T295G
T2 sequence (P06199 1-466 partner): T1 sequence (P06199 1-466 partner)
Method: as §1, §2, §3

Channel activity as % of the response evoked by GTPγS (Kir3.2 M313T; GTP (3 μM)): about 11 ± 2%
Compound: Nc1nc2c(ncn2[C@@H]2O[C@H](COP(=O)(O)OP(=O)(O)OP(=O)(O)O)[C@@H](O)[C@H]2O)c(=O)[nH]1 [GTP]
Channel activity as % of the response evoked by GTPγS (Kir3.2 WT; GTP (3 μM)): 4 ± 2%

stoichiometry N [1]: 4
stoichiometry N [2]: 4
Compound: cytoplasmic domain (CPD) of the mouse Kir3.2 E236R mutant (domain or fragment)

Compound: Nc1ncnc2c1ncn2[C@@H]1O[C@H](COP(=O)(O)OP(=O)(O)OP(=O)(O)O)[C@@H](O)[C@H]1O [ATP]
Channel activity as % of that evoked by 10 μM GTPγS (Kir3.2 WT; ATP perfused at 2 mM): 15 ± 4%
Channel activity as % of that evoked by 10 μM GTPγS (Kir3.2 M313G): 59 ± 6%
Sensitivity to ATP perfusion (Kir3.2 M313T; in contrast to M313G): less sensitive
